From patent publication US6512007B1, “Use of galiella lactone” (Bayer Aktiengesellschaft, priority 2000, dated 2003)
pIC50: −log10 of the molar value.

Tests used:
Solubility in solvents = format: physicochemical
Source text: Galiella lactone has the physical and chemical properties described hereinafter. […] It was possible with the aid of the mass spectra (Table 1) to establish firstly the molecular weight of 194 Da and then the molecular formula of C11H14O3.

[1] = system: primary neurons of the rat cerebellum; assay: NMDA-mediated calcium influx into primary neurons after chronic IL-6 treatment; format: cell-based
Method: Cultures of primary neurons were obtained from the cerebella of rats 6 to 8 days old as described by B. Engelsen and R. Bjerkvig [in R. I. Freshney (Editor) Culture of Animal Cells, 2nd Edition, Alan R. Liss, Inc. New York 1987, 277-279]. After removal of the tissue, single cells were obtained using papain and were seeded out in a density of 200 00 cells per well in microtitre plates (96 wells) coated with poly-D-lysine. The cells were cultivated in a growth medium consisting of DMEM/F12, 10% heat-inactivated horse serum. 25 mM KCl, 30 mM glucose, 2 mM glutamine. In order to minimize the number of glial cells, 5-fluoro-2′-deoxyuridine (20 μg/ml) was added on the first and fourth day in culture. The cultures obtained in this way consisted of more than 95% neurons.
Human recombinant interluekin-6 (IL-6) was dissolved in physiological salt solution (Hank's balanced salt solution) and added to neuron cultures on days, 1, 4, 7 and 11 after the start of culturing (final) concentration 5 ng/ml). […]
12 days after the start of culturing, the N-methyl-D-asparate (NMDA)-induced changes in the intracellular calcium level were measured using a fluorescence plate reader (Ascent Fluoroscan). […] The cells were stimulated by adding NMDA (final concentration 200 μM) in the presence of glycine (final concentration 5 μM), and the fluroescence was measured at 15-second intervals over a period of one minute (excitation 485 nm. emission 530 nm). Intracellular calcium concentrations were calculated by the formula [Ca^2]i=Kd.
The arithmetic means was formed from the intracellular calcium concentrations found at all four times of measurement, and the percentage change from the unstimulated controls (basa) calcium concentration) was calculated.
Inhibition of the potentiation, induced chronic IL-6 administration, of the NMDA-mediated calcium influx into primary neurons of the rat cerebellum by galiella lactone. […] The average calcium concentration during the one-minute measurement period was calculated and expressed as a per cent of the basal intracellular calcium concentration. […]

[2] = system: IL-6-induced and Stat3-mediated SEAP synthesis; assay: Inhibition of IL-6- and Stat3-mediated SEAP reporter gene expression in HepG2 cells; format: cell-based; conditions: Homo sapiens; HepG2, induction with IL-6 10 ng/ml, 24 h; read-out: concentration for half-maximal SEAP synthesis inhibition (IC50)
Method: The following bioassay was carried out for fundamental exemplary experiments for detecting the inhibition of IL-6- and Stat3-mediated gene expression:
The initial vector used was the vector pTK/SEAP (Biochem. Biophys. Res. Commun., 1996, 226: 214-21) (see FIG. 1) which contains the gene of secreted alkaline phosphatase (SEAP) as reporter gene. This vector was linearized with the restriction enzyme Nhel and then dephosphorylated. The following oligonucleotides
which contain a binding site for Stat3 and Stat1 proteins (cf. Proc. Natl. Acad. Sci. USA, 1995, 92: 3041-5) were phosphorylated, ligated and precipitated with ethanol. […]
The HepG2 cells were cultivated in a moist atmosphere with 5% CO2 at 37° C. in 50 ml of DMEM (Gibco BRL, Life Technologies GmbH. Dieselstr, 5, 76344 Eggenstein) with 10% fetal calf serum, and penicillin/streptomycin (100 iu) in 600 ml cell culture bottles. […] The cell count was determined using a counting chamber and was adjusted to 6-8×10^6 cells/ml. […]
Cytotoxic effects of the compounds on the cells were investigated by microscopy after 24 h. Likewise after 24 h. the SEAP activity was determined using the Phospha-Light™ chemoluminescence assay (Perkins-Elmer Applied Biosystems, Langen) and, under the chosen conditions, is directly proportional to the SEAP concentration in the analysed sample. […]

solubility in nonpolar solvents (Solubility in solvents; cyclohexane, n-pentane, n-hexane): scarcely soluble | solubility in polar solvents (Solubility in solvents; methanol, pyridine, ethyl acetate, acetonitrile, TBME, THF and water): readily soluble | pIC50 [2]: 7.00 to 7.30
SMILES: C[C@H]1C=C2C(=O)O[C@H]3CC[C@@H](C1)[C@@]23O [galiella lactone]
IL-6-induced enhancement of the NMDA-mediated calcium influx ([1]; 1 μM before each IL-6 addition (5 ng/ml), NMDA 200 μM): completely prevented | NMDA-induced increase in average intracellular calcium concentration ([1]; chronic administration 1 μM, NMDA 200 μM, without IL-6): somewhat reduced | effect on the basal calcium level ([1]; chronic treatment, 1 μM, no NMDA): no effect
